Among the data in patent US20230127046A1, “G9a INHIBITOR” (RIKEN, priority 2019, published 2023) are IC50 values, retold here.

The assay addresses T1, recombinant human G9a protein (Homo sapiens, UniProt Q96KQ7).
T1 construct: purchased BPS Bioscience Inc. #51001
T1 sequence (Q96KQ7 785-1210 limits assumed): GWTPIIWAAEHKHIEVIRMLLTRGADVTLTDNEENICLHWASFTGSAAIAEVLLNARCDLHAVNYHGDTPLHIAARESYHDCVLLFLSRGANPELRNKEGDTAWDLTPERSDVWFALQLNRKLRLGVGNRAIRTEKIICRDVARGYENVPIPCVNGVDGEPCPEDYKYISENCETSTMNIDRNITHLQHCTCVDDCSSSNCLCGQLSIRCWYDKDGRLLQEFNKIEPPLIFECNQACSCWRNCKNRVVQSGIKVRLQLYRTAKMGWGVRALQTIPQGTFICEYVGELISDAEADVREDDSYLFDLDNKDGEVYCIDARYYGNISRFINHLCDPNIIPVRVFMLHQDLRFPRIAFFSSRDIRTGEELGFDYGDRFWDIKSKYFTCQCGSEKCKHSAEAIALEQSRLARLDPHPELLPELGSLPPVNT
Briefly: G9a inhibitory activity test (ALPHA). The assay is classed as biochemical. An outline of the steps:
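Human G9a (0.05 to 0.1 nM) in Tris pH 9.0 buffer preincubated with compound 10 min, then biotinylated histone H3 (1-21) peptide and SAM mixed 1:1 from 500 nM and 150 μM solutions, 1 h at room temperature. H3K9me2 detected by AlphaLISA acceptor/streptavidin donor beads; IC50 from percent inhibition relative to no-compound and no-enzyme controls.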

The mark [1] stands for this setting: read-out: Inhibitory activity (G9a IC50).
The mark [2] stands for this setting: biotinylated histone H3 peptide (1-21), SAM, read-out: Inhibitory activity (G9a IC50 value).

Where two headings read alike, the source gives them in different places.

On to `Cc1ccc2nc(C(CCC3CC3)NC(=O)c3[nH]c4c(c3C)C(=O)CC(C)(C)C4)n(C)c2c1` (stereo not drawn) [Example 30-4], for which the IC50 – broadly, the midpoint of a concentration-inhibition curve – under setting [1] is at least 200 nM.

Take `CCCC[C@H](NC(=O)c1[nH]c2c(c1CCC)C(=O)CC(C)(C)C2)C(=O)N[C@@H](C)c1ccccc1` [Example 6-42]: the half-maximal inhibitory concentration (IC50) under setting [1] lay within 50 to 200 nM.

`Cc1c(C(=O)NC(CCC2CC2)C(=O)NCc2cccc(CN(C)C)c2)[nH]c2c1C(=O)CC(C)(C)C2` (stereo not drawn) [Example 1-148]: under setting [1], the IC50 was below 50 nM.

Regarding `CCCC[C@H](NC(=O)c1[nH]c2c(c1C)C(=O)CC(C)(C)C2)C(=O)Nc1ccccc1OC` [Example 1-33], the IC50 under setting [2] is at least 200 nM.

With `CCCCC(NC(=O)c1[nH]c2c(c1C)C(=O)CC(C)(C)C2)C(=O)Nc1ccc(N(C)C2CCN(C)CC2)nc1` (stereo not drawn) [Example 1-20], under setting [2], the IC50 was below 50 nM.

Consider `CCCCC(NC(=O)c1[nH]c2c(c1C)C(=O)CC(C)(C)C2)C(=O)NCc1ccc(CN2CCCCC2)cc1` (stereo not drawn) [Example 18-9], for which the IC50 under setting [1] is below 50 nM.

For `CCc1c(C(=O)NC(CCC2CC2)C(=O)N2CCc3c(OCCN(C)C)cccc32)[nH]c2c1C(=O)CC(C)(C)C2` (stereo not drawn) [Example 1-141], the IC50 under setting [1] is 50 to 200 nM.

`Cc1c(C(=O)NC(CCC2CC2)C(=O)NCc2ccccc2)[nH]c2c1C(=O)CC(C)(C)C2` (stereo not drawn) [Example 6-18]: the concentration for half-maximal inhibition (IC50) under setting [1] was 50 to 200 nM.

For the compound `CCCCC(NC(=O)c1[nH]c2c(c1C)C(=O)CC(C)(C)C2)C(=O)NCc1ccc(CN2CCC2)cc1` (stereo not drawn) [Example 18-14], the IC50 under setting [1] is below 50 nM.

In the case of `CCCCC(NC(=O)c1[nH]c2c(c1C)C(=O)CC(C)(C)C2)C(=O)Nc1cccc2ccccc12` (stereo not drawn) [Example 1-31], the IC50 under setting [2] is at least 200 nM.

Regarding `CCc1ncccc1NC(=O)C(CCC1CC1)NC(=O)c1[nH]c2c(c1C)C(=O)CC(C)(C)C2` (stereo not drawn) [Example 6-6], under setting [1], the half-inhibitory concentration (IC50) lay within 50 to 200 nM.

With `CCCC[C@H](NC(=O)c1[nH]c2c(c1C)C(=O)CC(C)(C)C2)C(=O)N[C@H](C)c1ccccc1` [Example 2-3], under setting [1], the IC50 fell in the range of 50 to 200 nM.

`CCCCC(NC(=O)c1[nH]c2c(c1C)C(=O)CC(C)(C)C2)C(=O)NCc1ccc(CCCO)cc1` (stereo not drawn) [Example 1-1, N-[1-[[4-(3-hydroxypropyl)phenyl]methylamino]-1-oxohexan-2-yl]-3,6,6-trimethyl-4-oxo-5,7-dihydro-1H-indole-2-carboxamide]: the concentration for half-maximal inhibition (IC50) under setting [2] is at least 200 nM.

Consider `CCCCC(NC(=O)c1[nH]c2c(c1C)C(=O)CC(C)(C)C2)C(=O)NCc1ccc(CN2CCC(F)CC2)cc1` (stereo not drawn) [Example 18-10], for which the IC50 under setting [1] was below 50 nM.

With `Cc1c(C(=O)NC(CCC2CC2)C(=O)Nc2ccccn2)[nH]c2c1C(=O)CC(C)(C)C2` (stereo not drawn) [Example 6-9], the 50% inhibitory concentration (IC50) under setting [1] was at least 200 nM.

With `CCCCC(NC(=O)c1[nH]c2c(c1C)C(=O)CC(C)(C)C2)C(=O)Nc1cccc2[nH]ccc12` (stereo not drawn) [Example 1-90], under setting [2], the IC50 was at least 200 nM.

On to `CCCCC(NC(=O)c1[nH]c2c(c1C)C(=O)CC(C)(C)C2)C(=O)Nc1ccc2c(c1)CNCC2` (stereo not drawn) [Example 25-3], for which the IC50 under setting [1] is 50 to 200 nM.

In the case of `CCCCC(NC(=O)c1[nH]c2c(c1C)C(=O)CC(C)(C)C2)C(=O)Nc1ccc(C)cc1` (stereo not drawn) [Example 1-21], the IC50 under setting [2] was at least 200 nM.

Take `Cc1c(C(=O)NC(CCC2CC2)C(=O)N2CCc3c(O)cccc32)[nH]c2c1C(=O)CC(C)(C)C2` (stereo not drawn) [Example 1-117]: the IC50 under setting [1] is at least 200 nM.

Take `CCCCC(NC(=O)c1[nH]c2c(c1C)C(=O)CC(C)(C)C2)C(=O)Nc1cccc(Cl)c1C` (stereo not drawn) [Example 1-30]: under setting [2], the IC50 was at least 200 nM.

With `CCCCC(NC(=O)c1[nH]c2c(c1C)C(=O)CC(C)(C)C2)C(=O)N[C@@H](CO)c1ccccc1` (stereo partly drawn) [Example 3-1, N-(1-(((R)-2-hydroxy-1-phenylethyl)amino)-1-oxohexan-2-yl)-3,6,6-trimethyl-4-oxo-4,5,6,7-tetrahydro-1H-indole-2-carboxamide], under setting [1], the half-maximal inhibitory concentration (IC50) lay in the range of 50 to 200 nM.

As for `CCCC[C@H](NC(=O)c1[nH]c2c(c1C)C(=O)CC(C)(C)C2)C(=O)NC(c1ccccc1)C(C)C` (stereo partly drawn) [Example 6-47], under setting [1], the IC50 is below 50 nM.

With `CCCCC(NC(=O)c1[nH]c2c(c1C)C(=O)CC(C)(C)C2)C(=O)NCc1cccc(Cl)c1` (stereo not drawn) [Example 1-42], the half-maximal inhibitory concentration (IC50) under setting [2] is at least 200 nM.

Regarding `CCCCC(NC(=O)Cc1ccccc1)C(=O)Nc1ccc(OC2COC2)nc1` (stereo not drawn) [Example 10, N-[6-(oxetan-3-yloxy)pyridin-3-yl]-2-[(2-phenylacetyl)amino]hexaneamide], the concentration for half-maximal inhibition (IC50) under setting [1] was 50 to 200 nM.

As for `Cc1ccc(NC(=O)C(CCC2CC2)NC(=O)c2[nH]c3c(c2C(C)C)C(=O)CC(C)(C)C3)cn1` (stereo not drawn) [Example 6-5], the 50% inhibitory concentration (IC50) under setting [1] was 50 to 200 nM.

As to `COCc1ccc(NC(=O)C(CCC2CC2)NC(=O)c2[nH]c3c(c2C)C(=O)CC(C)(C)C3)cn1` (stereo not drawn) [Example 1-60], under setting [2], the 50% inhibitory concentration (IC50) is at least 200 nM.

Turning to `CCCCC(NC(=O)c1[nH]c2c(c1C)C(=O)CC(C)(C)C2)C(=O)NCc1ccc(CNC)cc1` (stereo not drawn) [Example 18-6], under setting [1], the IC50 is below 50 nM.

`CCCCC(NC(=O)c1[nH]c2c(c1C)C(=O)CC(C)(C)C2)C(=O)N[C@@H]1CCc2ccccc21` (stereo partly drawn) [Example 1-111]: the half-inhibitory concentration (IC50) under setting [1] was 50 to 200 nM.

`CCCCC(NC(=O)c1[nH]c2c(c1C)C(=O)CC(C)(C)C2)C(=O)Nc1ccccc1SC` (stereo not drawn) [Example 1-2]: under setting [2], the half-maximal inhibitory concentration (IC50) is 50 to 200 nM.

As for `CCc1c(C(=O)NC(CCC2CC2)C(=O)Nc2ccc(C)nc2)[nH]c2c1C(=O)CC(C)(C)C2` (stereo not drawn) [Example 6-11], the IC50 under setting [1] lay within 50 to 200 nM.

As for `CCCCC(NC(=O)c1[nH]c2c(c1C)C(=O)CC(C)(C)C2)C(=O)Nc1cccc(-c2ccccn2)c1` (stereo not drawn) [Example 1-105], under setting [2], the IC50 was at least 200 nM.

For `CCCCC(NC(=O)c1[nH]c2c(c1C)C(=O)CC(C)(C)C2)C(=O)Nc1cc(C)ccc1OC` (stereo not drawn) [Example 1-38], under setting [2], the IC50 is at least 200 nM.

For `CCCC[C@H](NC(=O)c1[nH]c2c(c1CCC)C(=O)CC(C)(C)C2)C(=O)Nc1ccccc1` [Example 6-37], under setting [1], the half-inhibitory concentration (IC50) was at least 200 nM.

Take `CCCCC(NC(=O)c1[nH]c2c(c1C)C(=O)CC(C)(C)C2)C(=O)Nc1cccc2c1CCN(C)C2` (stereo not drawn) [Example 1-55]: the IC50 under setting [2] is at least 200 nM.

For the compound `Cc1c(C(=O)NC(CCC(C)C)C(=O)Nc2ccccc2)[nH]c2c1C(=O)CC(C)(C)C2` (stereo not drawn) [Example 6-25], the half-inhibitory concentration (IC50) under setting [1] was at least 200 nM.

As to `CCCCC(NC(=O)c1[nH]c2c(c1C)C(=O)CC(C)(C)C2)C(=O)Nc1ccccc1C(C)C` (stereo not drawn) [Example 1-12], the half-inhibitory concentration (IC50) under setting [2] was at least 200 nM.

Regarding `COc1ccc(NC(=O)C(CCC2CC2)NC(=O)c2ccc(CCN(C)C)cc2)cn1` (stereo not drawn) [Example 6-73], the IC50 under setting [1] is at least 200 nM.

Regarding `CCCCC(NC(=O)c1[nH]c2c(c1C)C(=O)CC(C)(C)C2)C(=O)Nc1ccc(OCCNC)nc1` (stereo not drawn) [Example 24-1, 3,6,6-trimethyl-N-[1-[[6-[2-(methylamino)ethoxy]pyridin-3-yl]amino]-1-oxohexan-2-yl]-4-oxo-5,7-dihydro-1H-indole-2-carboxamide], the IC50 under setting [1] was in the range of 50 to 200 nM.

On to `CCCCC(NC(=O)c1[nH]c2c(c1C)C(=O)CC(C)(C)C2)C(=O)Nc1ccccc1CN1CCN(C)CC1` (stereo not drawn) [Example 1-102], for which the IC50 under setting [2] was at least 200 nM.

Regarding `CCCCC(NC(=O)Cc1ccccc1C)C(=O)Nc1ccc(OC2CCN(C)CC2)nc1` (stereo not drawn) [Example 11-7], the IC50 under setting [1] is at least 200 nM.

Turning to `O=C(NC(CCC1CC1)C(=O)Nc1ccc(C(F)(F)F)nc1)c1ccc(Nc2ccncc2)cc1` (stereo not drawn) [Example 6-81], the half-maximal inhibitory concentration (IC50) under setting [1] was below 50 nM.

As to `Cc1c(C(=O)N[C@@H](CCC2CC2)C(=O)Nc2ccc(C#N)cc2)[nH]c2c1C(=O)CC(C)(C)C2` [Example 15-1, N-[(2S)-1-(4-cyanoanilino)-4-cyclopropyl-1-oxobutan-2-yl]-3,6,6-trimethyl-4-oxo-5,7-dihydro-1H-indole-2-carboxamide], under setting [1], the 50% inhibitory concentration (IC50) is below 50 nM.
